Experimental data: paper PMC9312958, “A Novel and Selective Dopamine Transporter Inhibitor, (S)-MK-26, Promotes Hippocampal Synaptic Plasticity and Restores Effort-Related Motivational Dysfunctions” (Biomolecules, 2022)
Values joined by “and” are separate entries in the source; they are usually repeats but may differ in a detail not shown here. Equal entries are not always repeated. Where two headings read alike, the source gives them in different places.

Legend:
[1] = tested on: extracellular dopamine levels; test: In vivo microdialysis of extracellular dopamine (mPFC, NAc shell, NAc core); design: species or system Male Sprague Dawley rats; conditions: for DA Concentrations (as Determined from AUCs): mean ± SEM
Experimental: Male Sprague Dawley rats (250–350 g, Janvier, France) were used for all in vivo microdialysis experiments. Animals were kept in groups of four in standard cages (38 cm × 60 cm × 20 cm) and were acclimated to the facility for at least ten days before the beginning of the experiment under controlled environmental conditions (22 ± 2 °C, 60% humidity, 12 h light/dark cycle, with lights on from 08:00 to 20:00 h), with water and standard laboratory food provided ad libitum. To limit the stress due to manipulation during the experiments, each animal was daily handled for approximately 1–2 min throughout the habituation period and contact with the animal house maintenance personnel was limited to a single attendant. The bedding in the home cages was never changed, neither the day before nor the day of the experiment. All experiments were performed between 10:00–18:00 h. (S)-MK-26 (1 or 10 mg/kg) or vehicle (Kolliphor 30% in distilled water) were freshly prepared on the day of the experiment and i.p. administered at a volume of 1.5 mL/kg. The day before the microdialysis experiment, rats were positioned in a stereotaxic apparatus (Stoelting Co., Wood Dale, IL, USA) and under isoflurane anaesthesia (1.5–2%) (Harvard Apparatus, Holliston, MA, USA) implanted with a vertical microdialysis probe. A probe with dialysis membrane of approximately 2–3 mm of free surface (prepared as previously described) was directed unilaterally at the mPFC (PrL and IL; coordinates: 3.0 mm anterior and 0.7 mm lateral to bregma, and 5.5 mm ventral to dura), at the NAc shell (coordinates: 2.0 mm anterior and 0.8 mm lateral to bregma, and 8.0 mm ventral to dura) or NAc core (coordinates: 1.6 mm anterior and 1.6 mm lateral to bregma, and 7.6 mm ventral to dura), according to the rat brain atlas. On the day of the experiment, the animals were transferred to a sound-proof room and after 1 h habituation period, the microdialysis probe was connected with polyethylene tubing to a CMA/100 microinfusion pump (Harvard Apparatus, Holliston, MA, USA) and perfused with a Ringer’s solution (147 mM NaCl, 3 mM KCl and 1.2 mM CaCl2, pH 6.5) at a flow rate of 2.5 µL/min. After an equilibration period of a 2 h of the perfusion medium with the extracellular fluid, dialysate aliquots of 37.5 µL were collected (every 15 min during the experiment) in polyethylene tubes kept on ice for the determination of dopamine concentrations. After collecting at least four dialysate aliquots, rats were i.p. injected with vehicle or (S)-MK-26 (1 or 10 mg/kg), and ten more dialysate aliquots were collected every 15 min. Dopamine concentrations in the dialysates from the NAc (core and shell) and mPFC were measured by high pressure liquid chromatography (HPLC) on a 7.5 cm × 3.0 mm i.d., Supelcosil C18, 3 µm particle size column, (Supelco, Supelchem, Milan, Italy) coupled to electrochemical detection (Coulochem II, ESA, Cambridge, MA, USA) using a 4011 dual cell, as previously described. Detection was performed in reduction mode, with potentials set to +350 and −180 mV. The mobile phase was 0.06 M citrate/acetate pH 4.2, containing methanol 20% v/v, 0.1 mM EDTA, 1 µM triethylamine, and 0.03 mM sodium dodecyl sulphate at a flow rate of 0.6 mL/min. The sensitivity of the assay was 0.125 pg. At the end of the experiments, the rats were sacrificed by decapitation; the brains were immediately removed from the skull and stored in 4% aqueous formaldehyde for 12–15 days. After this period, 40 µm coronal brain sections were prepared with a freezing microtome, stained with Neutral Red and inspected on a phase contrast microscope. The position of the tip of the microdialysis probe in the NAc (core and shell) and mPFC were then corroborated by following the tract of the microdialysis probe through a series of brain sections. […]

[2] = tested on: naive young (12 weeks) male rats; test: Open field, spontaneous locomotor activity; format: in vivo, rat
Experimental: Animals were habituated to the experimental room twenty-four hours prior to the start of the experiment. The open field consisted of a black wooden board (1.20 m × 1.20 m) surrounded by white wooden walls (50 cm in height); light was adjusted to 150 lux. Each animal was placed in the middle of the open-field arena (animal experiments conducted under BMBWF-66.009/235/V/3b/2018 regulations) and behavior was recorded for 10 min. Data analysis was performed using the AnyMaze software (Stoelting Co., IL, USA). The test consisted of one habituation session on the first day and one test session on the following day. Each animal received (S)-MK-26 at 10, 20, 0 and 1 mg/kg of body weight with wash-out period of nine days between each treatment.

[3] = Plasma and brain compound levels and pharmacokinetic parameters after i.p. administration; format: in vivo, male Sprague–Dawley rats; conditions: rat, 10 mg/kg i.p.; for concentration at 10 h: read-out: Clast
Experimental: The bioavailability of (S)-MK-26 after intraperitoneal (i.p.) administration in male Sprague–Dawley rats (260–351 g) was outsourced to Evotec (Toulouse CEDEX, France, Study Number VDD10431). (S)-MK-26 at dose of 10 mg/kg of body weight was i.p. administered and blood samples and brains were collected at 0.083, 0.25, 0.5, 1, 3, 7, 10, and 24 h post-administration (3 rats per time point). Plasma and brain levels of (S)-MK-26 were measured by LC-MS by a standard validated protocol defined by the contractor, and the pharmacokinetic parameters were calculated from individual concentrations by WinNonLin7.0 (Phoenix64), a non-compartmental model.

[4] = male, Sprague-Dawley, ip, brain
[5] = male, Sprague-Dawley, ip, plasma

[O-][S@@+](Cc1cncs1)C(c1cccc(Cl)c1)c1cccc(Cl)c1 [(S)-MK-26, (S)-5-(((B(3-chlorophenyl)methyl)sulphinyl)methyl)thiazole]
DA Concentrations (as Determined from AUCs) ([1]; NAc core dialysate, 1 mg/kg i.p.): 3056 ± 644 | DA Concentrations (as Determined from AUCs) ([1]; NAc core dialysate, 10 mg/kg i.p.): 7861 ± 1697 | peak increase of extracellular dopamine concentration above basal values ([1]; NAc core, 1 mg/kg i.p.): about 25% | peak increase of extracellular dopamine concentration ([1]; NAc core, 10 mg/kg i.p., peak 60–75 min after treatment): about 65% | DA Concentrations (as Determined from AUCs) ([1]; NAc shell dialysate, 1 mg/kg i.p.): 2972 ± 1094 | DA Concentrations (as Determined from AUCs) ([1]; NAc shell dialysate, 10 mg/kg i.p.): 7730 ± 1389 | peak increase of extracellular dopamine concentration ([1]; NAc shell, 10 mg/kg i.p., peak 30–45 min after treatment): about 70% | DA Concentrations (as Determined from AUCs) ([1]; mPFC dialysate, 1 mg/kg i.p.): 3159 ± 223 | DA Concentrations (as Determined from AUCs) ([1]; mPFC dialysate, 10 mg/kg i.p.): 4983 ± 547 | peak increase of extracellular dopamine concentration ([1]; mPFC, 1 mg/kg i.p., peak at 30 min after treatment): about 40% | peak increase of extracellular dopamine concentration ([1]; mPFC, 10 mg/kg i.p., peak at 45 min after treatment): about 75% | effect on total distance travelled over 10 min ([2]; 1, 10, 20 mg/kg vs vehicle): no effect | activity (distance travelled) within the initial 5 min of the test session ([2]; highest dose (20 mg/kg), p = 0.0236): moderately increased activity | stereotypic or anxiogenic behavior ([2]; open field, 1, 10, 20 mg/kg): did not induce stereotypic or anxiogenic behavior | detectable up to (time) ([3]; brain and plasma): 10 h | Tlast ([3]; brain): 10.0 h | time of maximum mean brain concentration ([3]; brain): 15 min | maximum mean brain concentration ([3]; brain, at 15 min): 634 ± 140 ng/g | Kp ([3]; male, Sprague-Dawley, brain and plasma, ip, read-out: mean brain to plasma concentration ratio): 1.12 ± 0.19 | AUC(0-t) [3, 4]: 1960 ng·h/mL and 5.14 µM·h | Cmax [3, 4]: 634 ng/mL and 1.67 µM | Tmax [3, 4]: 15 min | concentration at 10 h [3, 4]: 19.2 nM | AUC(0-t) [3, 5]: 1710 ng·h/mL and 4.5 µM·h | Cmax [3, 5]: 624 ng/mL and 1.64 µM | Tmax [3, 5]: 30 min | concentration at 10 h [3, 5]: 15.7 nM | Tlast ([3]; plasma): 10.0 h | time to peak mean plasma concentration ([3]; plasma): ≤ 30 min | adverse effects during the pharmacokinetic study [3]: No adverse effects were observed
